Experimental data reported in patent US20260021051A1, “PHARMACEUTICAL FORMULATIONS” (VIVUS LLC, priority 2015, published 2026).
Where two headings read alike, the source gives them in different places.

How the values were obtained:
[1] = cited from earlier work
[2] = Solubility of tacrolimus in vehicles (shaken, filtered, HPLC); assay type: physicochemical
Procedure: The solubility of tacrolimus was obtained in Maisine® 35-1, sesame oil, Miglyol® 812, Caspmul MCM EP, Labrafil M 2125 CS, peceol, Capryol 90, Lauroglycol FCC, Span 80, caprylic acid, Transcutol HP, Tween 80 (polysorbate 80), Kolliphor EL (Cremophor EL), labrasol, Vitamin E TPGS, PEG 400, propylene glycol, ethanol, Phosal 50 PG, triethylcitrate, and PEG 3350. In general, tacrolimus (˜15 mg) was added to approximately 250 mg of the vehicles. After the first addition of the API, the mixtures were shaken in a temperature-controlled vortex mixer for 24 hours at 25° C. (50° C. for Vitamin E TPGS and 60° C. for PEG 3350) then examined for solid residues. If no residue was observed, further addition of API was performed until the total API added was ˜55 mg. After the final addition, samples were further shaken at temperature for at least 24 h. After the incubation, each sample was examined visually for solid residues. Suspensions were filtered using a centrifuge tube with 0.45 μm PVDF membrane filter (Millipore Durapore®). The thick filtrate was weighed in to a 5-mL volumetric flask and diluted to mark with the HPLC diluent. Biphasic mixtures were vialed, spun on a centrifuge, and the clear solution was separated from the oily phase. All samples were prepared protected from light.

[3] = cited from earlier work; remark: listed apart in the source

solubility ([2]; in Capryol 90, 25° C.): > 56 mg of API per gram of solvent
solubility ([2]; in Caspmul MCM EP, 25° C.): > 56 mg of API per gram of solvent
solubility ([2]; in PEG 400, 25° C.): > 56 mg of API per gram of solvent
solubility ([2]; in PEG 3350, 60° C.): > 56 mg of API per gram of solvent
solubility ([2]; in Phosal 50 PG, 25° C.): > 56 mg of API per gram of solvent
solubility ([2]; in Vitamin E TPGS, 50° C.): > 56 mg of API per gram of solvent
solubility ([2]; in caprylic acid, 25° C.): > 56 mg of API per gram of solvent
solubility ([2]; in ethanol, 25° C.): > 56 mg of API per gram of solvent
solubility ([2]; in labrasol, 25° C.): > 56 mg of API per gram of solvent
solubility ([2]; in propylene glycol, 25° C.): > 56 mg of API per gram of solvent
solubility ([2]; in triethylcitrate, 25° C.): > 56 mg of API per gram of solvent
SMILES: C=CC[C@@H]1/C=C(\C)C[C@H](C)C[C@H](OC)[C@H]2O[C@@](O)(C(=O)C(=O)N3CCCC[C@H]3C(=O)O[C@H](/C(C)=C/[C@@H]3CC[C@@H](O)[C@H](OC)C3)[C@H](C)[C@@H](O)CC1=O)[C@H](C)C[C@@H]2OC (relative stereo) [Tacrolimus, [3S-[3R*[E(1S*,3S*,4S*)], 4S*,5R*,8S*,9E,12R*,14R*,15S*,16R*,18S*, 19S*,26-aR*]]-5,6,8,11,12,13,14,15,16,17,18,19,24,25,26a-hexadecahydro-5,19-dihydroxy-3-[2-(4-hydroxy-3-methoxycyclohexyl)-1-methylethenyl]-14,16-dimethoxy-4,10,12,18-tetramethyl-8-(2-propenyl)-15,19-epoxy-3H-pyrido [2,1-c][1,4]oxazacyclotricosine-1,7,20,21 (4H,23H)-tetrone, monohydrate]
solubility ([1]; in chloroform): very soluble
solubility ([1]; in ethanol): freely soluble
solubility ([1]; in methanol): very soluble
solubility ([1]; in water): practically insoluble
time to peak concentration ([3]; after oral administration): 0.5 to 4 h
volume of distribution (VolD) based on plasma ([3]; based on plasma): 5 to 65 L/kg of body weight
half-life for distribution ([3]; in vivo): 54 min
protein binding ([3]; in vivo): 75 to 99%
whole blood concentrations relative to plasma concentrations ([3]; in vivo): 12 to 67 times
bioavailability of the oral dosage form (range) ([3]; oral): 5 to 65%
mean bioavailability of the oral dosage form ([3]; oral): about 27%
